Structures can show the parent of a compound that is named as a salt. Where two headings read alike, the source gives them in different places.
Target: T1, IRAK4 (Homo sapiens, UniProt Q9NWZ3)
T1 sequence (Q9NWZ3 1-460): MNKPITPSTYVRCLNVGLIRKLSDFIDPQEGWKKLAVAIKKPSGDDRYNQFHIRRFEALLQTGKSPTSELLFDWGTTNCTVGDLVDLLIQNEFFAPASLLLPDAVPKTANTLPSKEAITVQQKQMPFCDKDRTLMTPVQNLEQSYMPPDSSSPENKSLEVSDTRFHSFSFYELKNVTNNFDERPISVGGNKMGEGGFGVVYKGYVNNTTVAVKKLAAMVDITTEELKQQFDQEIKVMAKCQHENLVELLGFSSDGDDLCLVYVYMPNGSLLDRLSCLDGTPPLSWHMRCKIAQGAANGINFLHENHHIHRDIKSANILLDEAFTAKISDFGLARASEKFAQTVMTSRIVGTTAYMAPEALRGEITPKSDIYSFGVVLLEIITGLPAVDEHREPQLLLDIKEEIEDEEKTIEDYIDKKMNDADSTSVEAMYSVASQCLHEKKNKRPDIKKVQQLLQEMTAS
Assay: biochemical

[1] = IRAK4 Biochemical Assay (1 mM ATP, 2 h) IC50 (μM), 1 mM ATP, 2 h, 100 pM IRAK4

Row | IC50 [µM] | IC50 [1] [µM] | SMILES
1 | 0.0069 |  | CC(C)Oc1cc2nc(C34COC(C)(C3)C4)cn2cc1C(=O)Nc1ccccn1 [Example 219]
2 |  | 0.0086 | COc1ncccc1NC(=O)c1cn2c(F)c(C34COC(C)(C3)C4)nc2cc1OC(C)C [Example 325, 3-Fluoro-7-isopropoxy-N-(2-methoxypyridin-3-yl)-2-(1-methyl-2-oxa-bicyclo[2.1.1]hexan-4-yl)imidazo[1,2-a]pyridine-6-carboxamide trifluoroacetate]
3 | 0.514 |  | COc1ccc(Cl)cc1NC(=O)c1cn2cc(C3CCOCC3)nc2cc1OC [Example 112]
4 | 0.0057 |  | CC(C)Oc1nc2nc(C3C4COCC43)cn2cc1C(=O)Nc1ccn(C(F)F)n1 (stereo not drawn) [Example 395, 2-(3-Oxabicyclo[3.1.0]hexan-6-yl)-N-(1-(difluoromethyl)-1H-pyrazol-3-yl)-7-isopropoxyimidazo[1,2-a]pyrimidine-6-carboxamide]
5 |  | 0.0009 | CCOc1nc(C(=O)Nc2cccnc2OC)cn2cc(C34CCC(C)(C3)OC4)nc12 (stereo not drawn) [Example 276, 8-Ethoxy-N-(2-methoxypyridin-3-yl)-2-(1-methyl-2-oxabicyclo[2.2.1]heptan-4-yl)imidazo[1,2-a]pyrazine-6-carboxamide trifluoroacetate]
6 | 0.0004 |  | CC(C)Oc1nc2nc([C@@]34CC[C@@](C)(C3)OC4)cn2cc1C(=O)Nc1cnn2cccnc12 (single isomer, unassigned) [Example 612]
7 | 0.0276 |  | COc1c(C(=O)Nc2cccc(C(F)F)n2)cn2cc(C34COC(C)(C3)C4)nc2c1C [Example 290, N-(6-(difluoromethyl)pyridin-2-yl)-7-methoxy-8-methyl-2-(1-methyl-2-oxabicyclo[2.1.1]hexan-4-yl)imidazo[1,2-a]pyridine-6-carboxamide]
8 | 0.025 |  | CCOc1cc2nc([C@H]3C[C@@H]3F)cn2cc1C(=O)Nc1cccc(OC)n1 (single isomer, unassigned) [Example 66]
9 |  | 0.0147 | CCOc1nc(C(=O)Nc2cccc(C(F)F)n2)cn2cc(C3CCOCC3)nc12 [Example 207, N-[6-(difluoromethyl)-2-pyridyl]-8-ethoxy-2-tetrahydropyran-4-ylimidazo[1,2-a]pyrazine-6-carboxamide trifluoroacetate]
10 | 0.181 |  | CCc1c(NC(=O)c2cn3cc(C4CCOCC4)nc3cc2OC)cnn1C [Example 199]
11 | 0.0111 |  | CC(C)Oc1nc2nc(C34COC(C)(C3)C4)cn2cc1C(=O)Nc1cc(F)n(C)n1 [Example 360, N-(5-fluoro-1-methyl-1H-pyrazol-3-yl)-7-isopropoxy-2-(1-methyl-2-oxabicyclo[2.1.1]hexan-4-yl)imidazo[1,2-a]pyrimidine-6-carboxamide]
12 |  | 0.0047 | CC(C)Oc1cc2nc(C34COC(C)(C3)C4)cn2cc1C(=O)Nc1cncn(C)c1=O [Example 261, 7-Isopropoxy-N-(1-methyl-6-oxo-1,6-dihydropyrimidin-5-yl)-2-(1-methyl-2-oxabicyclo[2.1.1]hexan-4-yl)imidazo[1,2-a]pyridine-6-carboxamide 2,2,2-trifluoroacetate]

Row | SMILES | IC50 [µM] | IC50 [1] [µM]
13 | CC12CC(c3cn4cc(C(=O)Nc5cccc(C(F)F)n5)nc(OC5CCC5)c4n3)(CO1)C2 [Example 345, 8-Cyclobutoxy-N-(6-(difluoromethyl)pyridin-2-yl)-2-(1-methyl-2-oxabicyclo[2.1.1]hexan-4-yl)imidazo[1,2-a]pyrazine-6-carboxamide] | 0.0022 | 
14 | CC12CC(c3cn4cc(C(=O)Nc5cccn(C(F)F)c5=O)c(OC5CCC5)cc4n3)(CO1)C2 [Example 442, 7-Cyclobutoxy-N-(1-(difluoromethyl)-2-oxo-1,2-dihydropyridin-3-yl)-2-(1-methyl-2-oxabicyclo[2.1.1]hexan-4-yl)imidazo[1,2-a]pyridine-6-carboxamide] | 0.0002 | 
15 | CC12CCC(c3cn4cc(C(=O)Nc5cccn(C(F)F)c5=O)c(OC5CCC5)cc4n3)(CO1)C2 (stereo not drawn) [Example 538, 7-Cyclobutoxy-N-(1-(difluoromethyl)-2-oxo-1,2-dihydropyridin-3-yl)-2-(1-methyl-2-oxabicyclo[2.2.1]heptan-4-yl)imidazo[1,2-a]pyridine-6-carboxamide] | 0.0003 | 

— US20230087118A1, “IMIDAZO[1,2-a][sequence] DERIVATIVES AND THEIR USE IN THE TREATMENT OF DISEASE” (priority 2019, published 2023)
